Experimental data taken from publication PMC7312375, “A Novel, Pan-PDE Inhibitor Exerts Anti-Fibrotic Effects in Human Lung Fibroblasts via Inhibition of TGF-β Signaling and Activation of cAMP/PKA Signaling” (International Journal of Molecular Sciences, 2020).

Legend:
PDE3B = biological target: T1, PDE3B (Homo sapiens, UniProt Q13370); test: PDE-Glo assay, human recombinant PDE3B; type: biochemical; conditions: read-out: PDE-IC50 3B
T1 construct: purchased SignalChem
Protocol: Inhibitory activities of the investigated compounds against various subtypes of human recombinant (hr)PDEs, namely PDE1A, PDE1B, PDE1C, PDE3A, PDE3B, PDE4A, PDE4B, PDE4D, PDE7A, and PDE8A were assessed using a PDE-Glo^TM Assay Kit (Promega, Madison, WI, USA) according to the protocol provided by the manufacturer. Briefly, appropriate amounts of each enzyme (SignalChem, Richmond, B.C., Canada), diluted with PDE-Glo reaction buffer, were distributed on a 384-well plate (Thermo Scientific, Waltham, MA, USA). The investigated compounds were dissolved in DMSO, diluted with the same vehicle, and mixed with the reaction buffer at a v/v ratio of 1:5. Thereafter, 1 µL of these mixtures and 2.5 µL of the cAMP solution as a substrate were added. The final cAMP concentration was 0.05 µM. The samples were incubated for 10 min at 30 °C. Then, 2.5 µL of termination buffer and 2.5 µL of PDE-Glo detection solution were added to each well and incubated for 20 min. Finally, 10 µL of PDE-Glo kinase reagent was added, and luminescence was measured using the POLARstar Omega plate reader (BMG LABTECH, Ortenberg, Germany). Each sample was prepared in quadruplicate. The relative activities (A, %) of all samples were calculated from the following equation: A = [(LUsample − LUblank)/(LUcontrol − LUblank)]·100%; where LUcontrol is the luminescence of a control sample in the absence of a PDE inhibitor, LUsample is a luminescence of an investigated sample in the presence of an inhibitor, and LUblank is a luminescence of a sample in the absence of enzyme (activity = 0). IC50 values were estimated using non-linear regression.

MRC-5 cells [1] = test: FBS-induced MRC-5 proliferation, alamarBlue assay; type: cell-based, human; conditions: for inhibition at 50 µM: Homo sapiens, MRC5, read-out: inhibition of FBS-induced MRC-5 proliferation rate; for MRC-5 proliferation [% of control]: 48 h with FBS
Protocol: The normal human lung fibroblast cell line—MRC-5 (ATCC® CCL-171™, Manassas, VA, USA)—was used in the study. Cells were cultured in Eagle’s Minimum Essential Medium (EMEM, ATCC® 30-2003™, Manassas, VA, USA) supplemented with 10% (v/v) fetal bovine serum (FBS; Gibco, Thermo Fisher Scientific, Waltham, MA, USA) and antibiotics mixture (penicillin, streptomycin, amphotericin B; Gibco, Thermo Fisher Scientific, Waltham, MA, USA) (standard culture medium) in standard culture conditions (5% CO2, 37 °C, 95% humidity). Unless otherwise specified, for the experiments, cells were seeded at a final density (5 × 10^3/cm^2) in standard culture medium for 24 h and then cultured in EMEM at reduced serum content (0.5%; v/v) for additional 24 h. TGF-β1 (BD Biosciences, San Jose, CA, USA) was administered at 5 ng/mL concentration in all experiments.
MRC-5 cell viability was evaluated using CytoTox-ONE™ Homogeneous Membrane Integrity Assay (Promega Corporation, Madison, WI, USA) according to the manufacturer’s protocol. The average fluorescence intensity with an excitation wavelength of 560 nm and an emission wavelength of 590 nm was measured using a microplate reader (SpectraMax® iD3, Molecular Devices, San Jose, CA, USA). Experiments were run three times in duplicates. MRC-5 proliferation was determined using the alamarBlue® assay. Cells were seeded for 24 h in standard culture medium, then serum-starved for an additional three days. Evaluated compounds (1-50 µM) were added 1 h prior FBS (10%, v/v) for an additional 48 h. After incubation, the alamarBlue® reagent (Invitrogen, Life Technologies, Carlsbad, CA, USA), dissolved in Hank’s Balanced Salt Solution (10% v/v; Gibco, Thermo Fisher Scientific, Waltham, MA, USA), was added for 30 min. After the observed color change, the supernatant was transferred to 96-well plates, and the absorbance was measured at 570 and 600 nm. The percent difference in reduction between treated and control cells was calculated according to the manufacturer’s protocol. The experiments were run three times in duplicates.

MRC-5 cells [2] = test: TGF-β1-induced collagen gel contraction assay; type: cell-based, human; conditions: 10 µM, 1 h pre-incubation, 6 h TGF-β1; compared to TGF-β1 alone
Protocol: A collagen cell contraction assay was performed according to manufactures’ instructions (Cell Biolabs, INC., San Diego, CA, USA). Briefly, MRC-5 was harvested and mixed with a collagen solution. After polymerization, collagen gel lattices were cultured for two days, during which mechanical tension develops. Before releasing the stressed matrix, MRC-5 cells were pre-treated with study compounds (10 µM) for 1 h. Then collagen gels were gently released from the sides of the culture dishes and contraction in the presence of study compounds, and TGF-β1 was initiated. The collagen gel size was monitored at various time points and quantified with the Fiji ImageJ Software (National Institutes of Health, Bethesda, MD, USA, version 1.52q). The experiments were run three times.

[3] = system: TGF-β1-induced MRC-5 cells; test: Immunofluorescence, nuclear localization of p-CREB; type: cell-based, human; conditions: 10 µM
Protocol: For immunocytochemical labeling, MRC-5 cells were seeded on glass coverslips. Study compounds (10 µM) were added 1 h before TGF-β1 treatment, and analysis was performed after 1 h (p-Smad-2 and p-CREB detection) or 48 h (α-SMA detection) of incubation. Cells were fixed in methanol or 4% formaldehyde solution, permeabilized in 0.2% or 0.1% Triton X-100 solution (for p-Smad-2 and p-CREB or α-SMA, respectively). After incubation in blocking solution the following primary antibodies: rabbit polyclonal, anti-phospho-Smad-2 (Ser465, Ser467) antibody (#44-244G, Thermo Fisher Scientific, Waltham, MA, USA); rabbit polyclonal, anti-phospho-CREB1 (Ser133) antibody (#orb213775, Biorbyt, Cambridge, United Kingdom); mouse monoclonal, anti-α-SMA antibody (#MA5-11547, Thermo Fisher Scientific, Waltham, MA, USA) and secondary antibodies: goat anti-rabbit Alexa Fluor 546 conjugated antibody and goat anti-mouse Alexa Fluor 488 conjugated antibody (#A-11010 and #A-11001, respectively, Invitrogen, Carlsbad, CA, USA) were used. Nuclei were counterstained with Hoechst 33342 dye (Thermo Fisher Scientific, Waltham, MA, USA). Slides were mounted in ProLong™ Glass Antifade Mountant (Invitrogen, Carlsbad, CA, USA) and analyzed using Leica DMiL LED Fluo microscope (for α-SMA and p-CREB visualization, 40× objective) or Leica DMi8 with Thunder Imaging System (for p-Smad-2 visualization, 40× objective), all equipped with LAS-X Software (Leica Microsystems GmbH, Wetzlar, Germany). Experiments were run four times using five randomly selected fields of view, at the same fluorescent time exposure and in a blind-folded manner.

T1 sequence (Q13370 whole entry): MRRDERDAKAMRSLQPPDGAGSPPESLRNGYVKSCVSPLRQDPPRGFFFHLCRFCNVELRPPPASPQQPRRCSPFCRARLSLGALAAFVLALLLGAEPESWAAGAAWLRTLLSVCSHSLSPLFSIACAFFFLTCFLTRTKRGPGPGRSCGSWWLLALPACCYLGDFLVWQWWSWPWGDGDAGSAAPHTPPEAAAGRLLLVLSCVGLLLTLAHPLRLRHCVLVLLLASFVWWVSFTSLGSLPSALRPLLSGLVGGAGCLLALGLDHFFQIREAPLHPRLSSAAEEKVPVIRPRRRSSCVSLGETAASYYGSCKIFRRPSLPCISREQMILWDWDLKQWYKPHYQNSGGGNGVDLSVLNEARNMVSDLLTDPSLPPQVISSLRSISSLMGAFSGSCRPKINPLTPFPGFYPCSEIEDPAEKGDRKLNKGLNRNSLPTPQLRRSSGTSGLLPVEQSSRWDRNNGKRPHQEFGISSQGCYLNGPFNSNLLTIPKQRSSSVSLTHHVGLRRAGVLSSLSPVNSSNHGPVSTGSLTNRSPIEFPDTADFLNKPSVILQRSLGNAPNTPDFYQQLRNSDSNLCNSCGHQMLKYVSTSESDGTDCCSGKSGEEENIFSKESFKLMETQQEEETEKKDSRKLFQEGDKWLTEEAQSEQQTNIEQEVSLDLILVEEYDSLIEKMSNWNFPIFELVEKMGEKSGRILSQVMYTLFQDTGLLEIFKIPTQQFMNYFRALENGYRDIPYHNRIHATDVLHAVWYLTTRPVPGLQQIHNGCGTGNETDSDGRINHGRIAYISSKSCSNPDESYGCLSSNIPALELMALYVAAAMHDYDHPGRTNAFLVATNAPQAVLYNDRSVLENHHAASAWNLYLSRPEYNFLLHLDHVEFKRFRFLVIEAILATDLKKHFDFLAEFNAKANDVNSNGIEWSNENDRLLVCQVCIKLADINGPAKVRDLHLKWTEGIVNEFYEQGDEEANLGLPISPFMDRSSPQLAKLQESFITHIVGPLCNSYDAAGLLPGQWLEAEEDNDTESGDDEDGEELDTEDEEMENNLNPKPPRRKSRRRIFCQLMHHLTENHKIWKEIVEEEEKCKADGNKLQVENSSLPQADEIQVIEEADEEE

| Compound | IC50 (PDE3B) | inhibition at 50 µM (MRC-5 cells [1]; 50 µM) | MRC-5 proliferation [% of control] (MRC-5 cells [1]; Table S1 (Figure 2B), 1 µM) | MRC-5 proliferation [% of control] (MRC-5 cells [1]; Table S1 (Figure 2B), 5 µM) | MRC-5 proliferation [% of control] (MRC-5 cells [1]; Table S1 (Figure 2B), 10 µM) | MRC-5 proliferation [% of control] (MRC-5 cells [1]; Table S1 (Figure 2B), 15 µM) | MRC-5 proliferation [% of control] (MRC-5 cells [1]; Table S1 (Figure 2B), 20 µM) | MRC-5 proliferation [% of control] (MRC-5 cells [1]; Table S1 (Figure 2B), 50 µM) | MRC-5 proliferation [% of control] (MRC-5 cells [1]; Table S2 (Figure 5B), 1 µM) | MRC-5 proliferation [% of control] (MRC-5 cells [1]; Table S2 (Figure 5B), 5 µM) | MRC-5 proliferation [% of control] (MRC-5 cells [1]; Table S2 (Figure 5B), 10 µM) | MRC-5 proliferation [% of control] (MRC-5 cells [1]; Table S2 (Figure 5B), 50 µM) | size of collagen gel lattices (TGF-β1-induced contraction) (MRC-5 cells [2]) | elevation of fraction of MRC-5 cells with nuclear p-CREB localization [3] |
| --- | --- | --- | --- | --- | --- | --- | --- | --- | --- | --- | --- | --- | --- | --- |
| CCCCOc1nc2c(c(=O)n(C)c(=O)n2C)n1CCCC(=O)Nc1cc(C(C)(C)C)ccc1O [Compound 145, 4-(8-butoxy-1,3-dimethyl-2,6-dioxo-1,2,3,6-tetrahydro-7H-purin-7-yl)-N-(5-(tert-butyl)-2-hydroxyphenyl)butanamide] | 2.05 µM | 58% | 104 % of control | 91 % of control | 84 % of control | 74 % of control | 72 % of control | 42 % of control | 93 % of control | 84 % of control | 83 % of control | 46 % of control | restored the size of collagen gel lattices to that of the untreated control | 70% |
| Cn1c(=O)c2c(nc(NCc3ccco3)n2CCCC(=O)NN=Cc2ccc(O)cc2O)n(C)c1=O [Compound 832, N′-(2,4-dihydroxybenzylidene)-4-(8-((furan-2-ylmethyl)amino)-1,3-dimethyl-2,6-dioxo-1,2,3,6-tetrahydro-7H-purin-7-yl)butanehydrazide] | 0.42 µM | 39% | 93 % of control | 87 % of control | 85 % of control | 82 % of control | 83 % of control | 61 % of control |  |  |  |  | increased only slightly | only a slight increase |
| COc1nc2c(c(=O)n(C)c(=O)n2C)n1CC(=O)Nc1ccc(C(C)(C)C)cc1 [Compound 869, N-(4-(tert-butyl)phenyl)-2-(8-methoxy-1,3-dimethyl-2,6-dioxo-1,2,3,6-tetrahydro-7H-purin-7-yl)acetamide] | 157 µM | 25% | 91 % of control | 89 % of control | 90 % of control | 88 % of control | 87 % of control | 75 % of control |  |  |  |  | increased only slightly | only a slight increase |
| CC(C)Cn1c(=O)n(C)c(=O)c2[nH]cnc21 [IBMX, 3-isobutyl-1-methyl-3,7-dihydro-1H-purine-2,6-dione, reference compound] | 0.31 µM | 10% | 102 % of control | 99 % of control | 98 % of control | 100 % of control | 95 % of control | 90 % of control |  |  |  |  | restored the size of collagen gel lattices to that of the untreated control | only a slight increase |
